# Read-outs that look alike come from different tables or passages of the source.
# What was measured:
# [1] = target: V2 receptor (Homo sapiens, UniProt P30518); settings: saturating dose, V2-Rluc + β-arrestin2-GFP, FIG. 22
# Procedure: The Rluc (BDP) was fused to the C-terminus of the GPCR and the GFP (FAM) was fused to the C-terminus of β-arrestin. Therefore, shortly after ligand binding (5-30 minutes) the BRET ratio should increase due to binding of β-arrestin to the GPCR, which brings the GFP in proximity to Rluc.
# HEK293 cell line were transiently transfected using the DNA constructs and LipofectAMINE™ 2000 (BRL/Gibco) in 100 mm dishes as described in the manufacturer's protocol. […] Bioluminescent reactions were analysed using the BRETCount with appropriate filters.
# Transfected cells were added (50 000 cells (in BRET buffer) per well) to the wells in white 96-well plates (Optiplate, Packard Instrument). […] In the other half, BRET buffer, alone, was added. Cells were then incubated for 10-20 minutes at room temperature before adding the coel400a. The analysis was performed at 25° C., integration time 2 sec per wavelength in luminescence mode. The filters used were: for Rluc emission 410DF80 (from Omega); for GFP D515/50M (from Chroma). Coel400a, at a working concentration of 40 μM (final 5 μM), was added to each well to start the bioluminescent reaction. The final reaction volume was 50 μl. Assays were done in quadruplicate.
# For all fusion constructs, a 6 amino acid linker was inserted, between the Rluc or GFP and the receptor (β2, β3 or V2) or β-arrestin2. […]
# [2] = target: V2-R (Homo sapiens, UniProt P30518); settings: AVP 50 nM, 20 minutes
# Procedure: BRET assays: HEK293 cell line were transiently co-transfected using the donor and acceptor fusion construct DNAs and LipofectAMINE 2000 (Life Technologies) in 100 mm dishes as described in the manufacturer's protocol. For the transfections, a DNA ratio of 4 μg:46 μg (donor fusion construct: acceptor fusion construct) was used. The donor fusion constructs were the V2-R:Rluc (h) fusion constructs and the acceptor fusion construct was either the pcDNA3.1hyg/GFP1:β-arrestin2 or the pcDNA3.1hyg/β-arrestin2:GFP1. […] Fifty thousand transfected cells per well were added to white 96-well plates (Optiplate, Packard Instrument Company). […] Cells were then incubated for 20 minutes at room temperature in a total volume of 37.5 μl. After the incubation period, 12.5 μl of DeepBlueC at 20 μM (also called Coel400a) was added in each well (final concentration of 5 μM). Final assay volume was 50 μl. Donor and acceptor light outputs were quantified with the Fusion microtiterplate analyzer (Packard Instrument Company) using the following instrument setting:
# Read length: 1 sec per well per filter.
# Results represent the mean+/−SEM of quadruplicate wells. […] In all cases, background levels (wells with only DBC in PBS+) were subtracted.
# [3] = Coelenterazine 400a stock solution stability (luminescence with CHO cells expressing Rluc, BRETCount); type: physicochemical
# Procedure: Coelenterazine stability: Three different stock solutions of coelenterazine 400a (dissolved in anhydrous ethanol), prepared at different times, were tested using the BRETCount. CHO cells were transiently transfected with pcDNA3.1-Rluc only. Forty-eight hours later, 50 000 cells in complete BRET buffer were distributed in wells (96-well white Optiplate). Coelenterazine 400a from the various stocks were then added to start the bioluminescent reaction. […] A reduction of 22% is observed for the older stock (made Feb. 19, 1999) compared to a stock freshly made (Aug. 6, 1999). […].
# FIG. 9 represents the same bioluminescent reactions as in FIG. 8 but at t=5 min after addition of the coelenterazines. In this case no significant difference was observed between the various coelenterazine stocks.
# Coel400a stored for a longer period of time (6 months), does show a loss of potential but it remains acceptable and workable for the BRET system.
# [4] = tested on: HeLa cells transfected with the GFP1:Caspase-3:Rluc sensor; assay: BRET apoptosis sensor assay; type: cell-based; settings: staurosporine 1 μM, 5 hours
# Procedure: PGFP1:caspase-3:Rluc DNAs and the original plasmid pGFP1::Rluc (without the caspase-3 site) were transfected into HeLa cell using LipofectAMINE (BRL/Gibco-Life technologies) in 100 mm dishes and 8 μg of plasmid DNA as described in the manufacturer's protocol. Twenty-four hours post-transfection transfected cells were harvested and distributed into 96-well microtiterplate (white Optiplate from Packard) at a density of 30 000 cells per well. […] Cells were incubated for 5 hours at 37° C. After this period, 50 μl of BRET buffer (PBS Ca^2+/Mg^2++glucose without aprotinin) and 50 μl of DeepBlueC (20 μM) were added to start the bioluminescence reaction. Total assay volume was 200 μl. Light emissions were detected using the BRETCount (read length of 1 sec. for each filter, SPC mode, temperature 25° C.).
compound,measurement,setting,value
Arg^8-vasopressin [AVP],BRET ratio in the presence of the agonist,[1],increased
same,BRET signal in presence of AVP,"[2]; V2-R:Rluc + GFP1:β-arrestin2, 10 min after DeepBlueC",0.129
same,BRET signal in presence of AVP,"[2]; V2-R:Rluc + β-arrestin2:GFP1, 10 min after DeepBlueC",0.087
"O=c1c(Cc2ccccc2)nc2c(Cc3ccccc3)[nH]c(-c3ccccc3)cn1-2 [Coelenterazine 400a, phenylcoelenterazine]",reduction of luminescent signal immediately after addition of the substrate,"[3]; stock in anhydrous ethanol made Feb. 19, 1999 compared to stock freshly made (Aug. 6, 1999)",22%
same,luminescence reduction immediately after addition of the substrate,"[3]; stock in anhydrous ethanol made Jul. 22, 1999 compared to stock freshly made (Aug. 6, 1999)",did not demonstrate significant luminescence reduction
CN[C@@H]1C[C@H]2O[C@@](C)([C@@H]1OC)n1c3ccccc3c3c4c(c5c6ccccc6n2c5c31)C(=O)NC4 [staurosporine],BRET ratio change (decrease),"[4]; cells transfected with pGFP1:caspase-3:Rluc, time zero",0.72 unit
same,change in BRET ratio,[4]; cells transfected with pGFP::Rluc (without the caspase-3 site),No change
